In patent US11130750B2, “Calcium channel inhibitors” (Cavion, Inc., priority 2017, dated 2021):

Test system: Human Glioma cancer cell line U251
Experiment: Cell Proliferation Assay by CCK-8 Reagent
Format: cell-based
Conditions: U251 cells, 72 hours incubation, CCK-8, % viability vs vehicle control
Experimental: Human Glioma cancer cell line U251 was maintained in DMEM (Gibco, Cat #10569-10) supplemented with 10% fetal bovine serum inactivated at 56° C. (Gibco, Cat #10082-147), 100 U/mL penicillin, and 100 μg/mL streptomycin (Gibco, Cat #15140-122) at 37° C. and 1% MEM non-essential amino acid (Sigma, Cat #M7145) in a humid atmosphere containing 5% CO2. The cells were seeded at 2.5×10^3 cells/well in a 96 well plate (BD falcon, Cat #353072) with 200 pt volume/well and kept in 37° C./5% CO2 incubator for 0/N incubation. The seeding density was optimized previously based on growth curve. On the next day, plated cells were incubated with each test compounds at eight different concentrations (100, 50, 25, 12.5, 6.25, 3.125, 1.5 and 0.78) in triplicates. DMSO was used as a Vehicle control and Culture medium was used as blank control for the assay in each plate. The percentage of DMSO was kept uniform across the plate as <1%. The compound treated cells were incubated in 37° C./5% CO2 incubator for 72 hours. After incubation period, […] CCK-8 reagent (Dojindo, Cat #CK04) was added in all the wells and plate was kept in 37° C./5% CO2 incubator for 3 hours. After CCK-8 incubation, absorbance was measured @ 450 nm using Spectrophotometer (BMG, Omega Polar Star). % Viability values at each concentration were calculated with respect to Vehicle control and EC50 values were calculated using graph pad prism software and are shown in Table A.

SMILES | EC50 [µM] | EC50 (Homo sapiens, U-251, 72 h) [µM]
CNC(=O)OC1(CCN(C)CCCc2nc3ccccc3[nH]2)COc2cc(F)ccc2[C@@H]1C(C)C (single isomer, unassigned) [Example 20A] | 54 | –
CNC(=O)OC1(CCN(C)CCCc2nc3ccccc3[nH]2)COc2cc(F)ccc2[C@@H]1C(C)C (single isomer, unassigned) [Example 20B] | 12 | –
CNC(=O)O[C@]1(CCN(C)CCCc2nc3ccccc3[nH]2)CCc2cc(F)ccc2[C@@H]1C(C)C [Example 1, (1S,2S)-2-(2-((3-(1H-Benzo[d]imidazol-2-yl)propyl)(methyl)amino)ethyl)-6-fluoro-1-isopropyl-1,2,3,4-tetrahydronaphthalen-2-yl methylcarbamate] | – | 6
COC(=O)O[C@]1(CCN(C)CCCc2nc3ccccc3[nH]2)CCc2cc(F)ccc2[C@@H]1C(C)C [Example 2, (1S,2S)-2-(2-((3-(1H-Benzo[d]imidazol-2-yl)propyl)(methyl)amino)ethyl)-6-fluoro-1-isopropyl-1,2,3,4-tetrahydronaphthalen-2-yl methylcarbonate] | – | 10
CNC(=O)O[C@]1(CCN(C)CCCc2nc3c(C)ccc(C)c3[nH]2)CCc2cc(F)ccc2[C@@H]1C(C)C [Example 3, (1S,2S)-2-(2-((3-(4,7-Dimethyl-1H-benzo[d]imidazol-2-yl)propyl)(methyl)amino)ethyl)-6-fluoro-1-isopropyl-1,2,3,4-tetrahydronaphthalen-2-yl methylcarbamate] | – | 6
Cc1ccc(C)c2[nH]c(CCCN(C)CC[C@@]3(OC(=O)NCCN(C)C)CCc4cc(F)ccc4[C@@H]3C(C)C)nc12 [Example 4, (1S,2S)-2-(2-((3-(4,7-Dimethyl-1H-benzo[d]imidazol-2-yl)propyl)(methyl)amino)ethyl)-6-fluoro-1-isopropyl-1,2,3,4-tetrahydronaphthalen-2-yl (2-(dimethylamino)ethyl)carbamate] | – | 2.5
CNC(=O)O[C@]1(CCN(C)CCCc2nc3c(OC)ccc(OC)c3[nH]2)CCc2cc(F)ccc2[C@@H]1C(C)C [Example 5, (1S,2S)-2-(2-((3-(4,7-Dimethoxy-1H-benzo[d]imidazol-2-yl)propyl)(methyl)amino)ethyl)-6-fluoro-1-isopropyl-1,2,3,4-tetrahydronaphthalen-2-yl methylcarbamate] | – | 10
COCCNC(=O)O[C@]1(CCN(C)CCCc2nc3c(OC)ccc(OC)c3[nH]2)CCc2cc(F)ccc2[C@@H]1C(C)C [Example 6, (1S,2S)-2-(2-((3-(4,7-Dimethoxy-1H-benzo[d]imidazol-2-yl)propyl)(methyl)amino)ethyl)-6-fluoro-1-isopropyl-1,2,3,4-tetrahydronaphthalen-2-yl (2-methoxyethyl)carbamate] | – | 15
COc1ccc(Cl)c2[nH]c(CCCN(C)CC[C@@]3(OC(=O)N(C)C)CCc4cc(F)ccc4[C@@H]3C(C)C)nc12 [Example 7, (1S,2S)-2-(2-((3-(7-Chloro-4-methoxy-1H-benzo[d]imidazol-2-yl)propyl)(methyl)amino)ethyl)-6-fluoro-1-isopropyl-1,2,3,4-tetrahydronaphthalen-2-yl dimethylcarbamate] | – | 7.7
CC(C)[C@H]1c2ccc(F)cc2CC[C@@]1(CCN(C)CCCc1nc2c(C(F)(F)F)cc(C(F)(F)F)cc2[nH]1)OC(=O)N1CCOCC1 [Example 8, (1S,2S)-2-(2-((3-(4,6-Bis(trifluoromethyl)-1H-benzo[d]imidazol-2-yl)propyl)(methyl)amino)ethyl)-6-fluoro-1-isopropyl-1,2,3,4-tetrahydronaphthalen-2-yl morpholine-4-carboxylate] | – | 6.8
CC(C)[C@H]1c2ccc(F)cc2CC[C@@]1(CCN(C)CCC(C)(C)c1nc2ccccc2[nH]1)OC(=O)N1CCOCC1 [Example 9, (1S,2S)-2-(2-((3-(1H-Benzo[d]imidazol-2-yl)-3-methylbutyl)(methyl)amino)ethyl)-6-fluoro-1-isopropyl-1,2,3,4-tetrahydronaphthalen-2-yl morpholine-4-carboxylate] | – | 68
CNC(=O)O[C@]1(CCN(C)CCC(C)(C)c2nc3ccccc3[nH]2)CCc2cc(F)ccc2[C@@H]1C(C)C [Example 10, (1S,2S)-2-(2-((3-(1H-Benzo[d]imidazol-2-yl)-3-methylbutyl)(methyl)amino)ethyl)-6-fluoro-1-isopropyl-1,2,3,4-tetrahydronaphthalen-2-yl methylcarbamate] | – | 9.5
CC(C)[C@H]1c2ccc(F)cc2CC[C@@]1(CCN(C)CCC(C)(C)c1nc2ccccc2[nH]1)OC(=O)NCCN(C)C [Example 11, (1S,2S)-2-(2-((3-(1H-Benzo[d]imidazol-2-yl)-3-methylbutyl)(methyl)amino)ethyl)-6-fluoro-1-isopropyl-1,2,3,4-tetrahydronaphthalen-2-yl (2-(dimethylamino)ethyl)carbamate] | – | 2.5
COCCNC(=O)O[C@]1(CCN(C)CCC(C)(C)c2nc3ccccc3[nH]2)CCc2cc(F)ccc2[C@@H]1C(C)C [Example 12, (1S,2S)-2-(2-((3-(1H-Benzo[d]imidazol-2-yl)-3-methylbutyl)(methyl)amino)ethyl)-6-fluoro-1-isopropyl-1,2,3,4-tetrahydronaphthalen-2-yl (2-methoxyethyl)carbamate] | – | 12
CC(C)[C@H]1c2ccc(F)cc2CC[C@@]1(CCN(C)CCC(C)(C)c1nc2ccccc2[nH]1)OC(=O)NCCN1CCCC1 [Example 13, (1S,2S)-2-(2-((3-(1H-Benzo[d]imidazol-2-yl)-3-methylbutyl)(methyl)amino)ethyl)-6-fluoro-1-isopropyl-1,2,3,4-tetrahydronaphthalen-2-yl (2-(pyrrolidin-1-yl)ethyl)carbamate] | – | 4.6
CCN(CC)CCNC(=O)O[C@]1(CCN(C)CCC(C)(C)c2nc3ccccc3[nH]2)CCc2cc(F)ccc2[C@@H]1C(C)C [Example 14, (1S,2S)-2-(2-((3-(1H-Benzo[d]imidazol-2-yl)-3-methylbutyl)(methyl)amino)ethyl)-6-fluoro-1-isopropyl-1,2,3,4-tetrahydronaphthalen-2-yl (2-(diethylamino)ethyl)carbamate] | – | 3.8
Cc1ccc(C)c2[nH]c(CCCN(C)CC[C@@]3(OC(=O)N(C)C)CCc4cc(F)ccc4[C@@H]3C(C)C)nc12 [Example 16, (1S,2S)-2-(2-((3-(4,7-dimethyl-1H-benzo[d]imidazol-2-yl)propyl)(methyl)amino)ethyl)-6-fluoro-1-isopropyl-1,2,3,4-tetrahydronaphthalen-2-yl dimethylcarbamate] | – | 6
Cc1ccc(C)c2[nH]c(CCCN(C)CC[C@]3(OC(=O)N4CCOCC4)CCc4cc(F)ccc4[C@H]3C(C)C)nc12 [Example 17, (1R,2R)-2-(2-((3-(4,7-Dimethyl-1H-benzo[d]imidazol-2-yl)propyl)(methyl)amino)ethyl)-6-fluoro-1-isopropyl-1,2,3,4-tetrahydronaphthalen-2-yl morpholine-4-carboxylate] | – | 4.3
CC(C)[C@H]1c2ccc(F)cc2CC[C@@]1(CCN(C)CCC1(c2nc3ccccc3[nH]2)CC1)OC(=O)N1CCOCC1 [Example 19, (1S,2S)-2-(2-((2-(1-(1H-Benzo[d]imidazol-2-yl)cyclopropyl)ethyl)(methyl)amino)ethyl)-6-fluoro-1-isopropyl-1,2,3,4-tetrahydronaphthalen-2-yl morpholine-4-carboxylate] | – | 23
CNC(=O)OC1(CCN(C)CCCc2nc3c(C)ccc(C)c3[nH]2)COc2cc(F)ccc2[C@@H]1C(C)C (stereo partly drawn) [Example 21A, (4S)-3-(2-((3-(4,7-Dimethyl-1H-benzo[d]imidazol-2-yl)propyl)(methyl)amino)ethyl)-7-fluoro-4-isopropylchroman-3-yl methylcarbamate] | – | 7
CNC(=O)OC1(CCN(C)CCCc2nc3c(C)ccc(C)c3[nH]2)COc2cc(F)ccc2[C@@H]1C(C)C (stereo partly drawn) [Example 21B, (4S)-3-(2-((3-(4,7-Dimethyl-1H-benzo[d]imidazol-2-yl)propyl)(methyl)amino)ethyl)-7-fluoro-4-isopropylchroman-3-yl methylcarbamate] | 9 | –
COCC(=O)O[C@]1(CCN(C)CCCc2nc3ccccc3[nH]2)CCc2cc(F)ccc2[C@@H]1C(C)C [Mibefradil, mibefradil, reference compound] | – | 12
